# Source: patent publication US8124641B2, “Aminotetrahydroindazoloacetic acids” (Hoffmann-La Roche Inc., priority 2008, dated 2012)
# Molecular target: T1, human CRTH2 (Homo sapiens, UniProt Q9Y5Y4)
# T1 construct: expressed in transfected cells
# T1 sequence (Q9Y5Y4 1-395): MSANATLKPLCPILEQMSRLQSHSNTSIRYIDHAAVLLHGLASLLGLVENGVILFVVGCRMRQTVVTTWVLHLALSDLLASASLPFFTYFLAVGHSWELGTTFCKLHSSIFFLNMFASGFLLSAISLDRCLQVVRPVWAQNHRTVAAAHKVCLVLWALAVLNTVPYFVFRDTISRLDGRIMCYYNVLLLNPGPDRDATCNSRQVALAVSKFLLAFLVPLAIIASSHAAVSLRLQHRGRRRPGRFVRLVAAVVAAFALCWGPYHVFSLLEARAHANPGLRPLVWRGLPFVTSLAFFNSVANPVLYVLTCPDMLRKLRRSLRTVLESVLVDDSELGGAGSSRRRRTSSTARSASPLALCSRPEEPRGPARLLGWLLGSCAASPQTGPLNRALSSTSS
# Assay: Human CRTH2 Receptor Binding Assay (whole cell, [3H]ramatroban competition)
# Conditions: CHO-K1 cells stably expressing human CRTH2 and G-alpha16; 20 nM [3H]ramatroban; 1 hour, room temperature
# From the text: A whole cell receptor binding assay using [^3H]ramatroban as the competing radioactive ligand was employed to evaluate the compound binding activity to human CRTH2. The radioactive ligand [^3H]ramatroban was synthesized according to Sugimoto et. al. (Eur. J. Pharmacol. 524, 30-37, 2005) to a specific activity of 42 Ci/mmol.
# A cell line stably expressing human CRTH2 was established by transfecting CHO-K1 cells with two mammalian expression vectors that harbored human CRTH2 and G-alpha16 cDNAs, respectively, using FuGene® 6 transfection reagent (from Roche). Stable clones expressing CRTH2 were selected by staining each clone with BM16 (BD Pharmingen™ from BD Biosciences, a division of Becton, Dickinson and Company), which is a rat monoclonal antibody to human CRTH2. The cells were maintained as monolayer cultures in Ham's F-12 medium containing 10% fetal bovine serum, 100 units/mL penicillin, 100 μg/mL streptomycin, 2 mM glutamine, 0.5 mg/mL G418 (geneticin) for CRTH2, and 0.2 mg/mL hygromycin-B (for G-alpha 16). For whole cell receptor binding assay, the monolayer cells were rinsed once with PBS (phosphate buffered saline), dissociated using ethylenediaminetetraacetate (Versene™ EDTA from Lonza Inc.), and suspended in PBS containing 10 mM MgCl2 and 0.06% BSA (bovine serum albumin) at 1.5×10^6 cells/mL.
# The binding reactions (0.2 mL) were performed in 96-well plates at room temperature in PBS containing 1.5×10^5 cells, 10 mM MgCl2, 0.06% BSA, 20 nM [^3H]ramatroban, and test compound at various concentrations. After 1 hour of binding reactions, the cells were harvested on GF™/B filter microplates (microtiter plates with embedded glass fiber from PerkinElmer, Inc.) and washed 5 times with PBS using a Filtermate™ Harvester (a cell harvester that harvests and washes cells from microplates from PerkinElmer, Inc.). The radioactivities bound to the cells were determined using a microplate scintillation counter (TopCount® NXT, from PerkinElmer, Inc.) after adding 50 μL of Microscint™ 20 scintillation fluid (from PerkinElmer, Inc.) to each well of the filter plates. The radioactivity from non-specific binding was determined by replacing compound with 10 μM of 15(R)-15-methyl PGD2 (from Cayman Chemical Company) in the reaction mixtures. The radioactivity bound to the cells in the absence of compound (total binding) was determined by replacing compound with 0.25% of DMSO (dimethyl sulfoxide) in the reaction mixture. Specific binding data were obtained by subtracting the radioactivity of non-specific binding from each binding data.
# The IC50 value is defined as the concentration of the tested compound that is required for 50% inhibition of total specific binding. In order to calculate the IC50 value, the percent inhibition data were determined for 7 concentrations for each compound. The percent inhibition for a compound at each concentration was calculated according to the following formula, [1−(specific binding in the presence of compound)/(total specific binding)]×100. The IC50 value was then obtained by fitting the percent inhibition data to a sigmoidal dose-response (4 parameter logistic) model in the XLfit® software Excel add-in program [from ID Business Solutions Ltd., model 205, where F(x)=(A+(B−A)/(1+((C/x)^D)))].
row,IC50 [nM],SMILES
1,13,"O=C(O)Cn1ncc2c1CCC[C@H]2NS(=O)(=O)c1cc(Br)cc(C(F)(F)F)c1 [Example 1-1a, [(R)-4-(3-Bromo-5-trifluoromethyl-benzenesulfonylamino)-4,5,6,7-tetrahydro-indazol-1-yl]-acetic acid]"
2,386,"O=C(O)Cn1ncc2c1CCCC2NS(=O)(=O)c1cc(Cl)cc(Cl)c1 (stereo not drawn) [Example 1-2a, [4-(3,5-Dichloro-benzenesulfonylamino)-4,5,6,7-tetrahydro-indazol-1-yl]-acetic acid]"
3,234,"O=C(O)Cn1ncc2c1CCCC2NS(=O)(=O)c1ccc(Cl)cc1Cl (stereo not drawn) [Example 1-3a, [4-(2,4-Dichloro-benzenesulfonylamino)-4,5,6,7-tetrahydro-indazol-1-yl]-acetic acid]"
4,16.4,"O=C(O)Cn1ncc2c1CCC[C@H]2NS(=O)(=O)c1cc(C(F)(F)F)cc(C(F)(F)F)c1 [Example 1-4a, [(R)-4-(3,5-Bis-trifluoromethyl-benzenesulfonylamino)-4,5,6,7-tetrahydro-indazol-1-yl]-acetic acid]"
5,225,"Cc1ccc(S(=O)(=O)NC2CCCc3c2cnn3CC(=O)O)cc1[N+](=O)[O-] (stereo not drawn) [Example 1-5a, [4-(4-Methyl-3-nitro-benzenesulfonylamino)-4,5,6,7-tetrahydro-indazol-1-yl]-acetic acid]"
6,397,"Cc1cc(C)cc(S(=O)(=O)NC2CCCc3c2cnn3CC(=O)O)c1 (stereo not drawn) [Example 1-6a, [4-(3,5-Dimethyl-benzenesulfonylamino)-4,5,6,7-tetrahydro-indazol-1-yl]-acetic acid]"
7,35.7,"O=C(O)Cn1ncc2c1CCCC2NS(=O)(=O)c1cc(Br)cc(C(F)(F)F)c1 (stereo not drawn) [Example 1-7a, [4-(3-Bromo-5-trifluoromethyl-benzenesulfonylamino)-4,5,6,7-tetrahydro-indazol-1-yl]-acetic acid]"
8,431,"O=C(O)Cn1ncc2c1CCCC2NS(=O)(=O)c1ccc(Br)c(F)c1 (stereo not drawn) [Example 1-8a, [4-(4-Bromo-3-fluoro-benzenesulfonylamino)-4,5,6,7-tetrahydro-indazol-1-yl]-acetic acid]"
9,277,"Cc1cc(S(=O)(=O)NC2CCCc3c2cnn3CC(=O)O)ccc1Br (stereo not drawn) [Example 1-9a, [4-(4-Bromo-3-methyl-benzenesulfonylamino)-4,5,6,7-tetrahydro-indazol-1-yl]-acetic acid]"
10,119,"O=C(O)Cn1ncc2c1CCCC2NS(=O)(=O)c1ccc(Br)c(C(F)(F)F)c1 (stereo not drawn) [Example 1-10a, [4-(4-Bromo-3-trifluoromethyl-benzenesulfonylamino)-4,5,6,7-tetrahydro-indazol-1-yl]-acetic acid]"
11,291,"O=C(O)Cn1ncc2c1CCCC2NS(=O)(=O)c1cnc(Cl)c(Br)c1 (stereo not drawn) [Example 1-11a, [4-(5-Bromo-6-chloro-pyridine-3-sulfonylamino)-4,5,6,7-tetrahydro-indazol-1-yl]-acetic acid]"
12,53.3,"COc1cc(C(F)(F)F)cc(S(=O)(=O)N[C@@H]2CCCc3c2cnn3CC(=O)O)c1 [Example 1-12a, [(R)-4-(3-Methoxy-5-trifluoromethyl-benzenesulfonylamino)-4,5,6,7-tetrahydro-indazol-1-yl]-acetic acid]"
13,205,"O=C(O)Cn1ncc2c1CCCC2NS(=O)(=O)c1cc(C(F)(F)F)ccc1C(F)(F)F (stereo not drawn) [Example 1-13a, [4-(2,5-Bis-trifluoromethyl-benzenesulfonylamino)-4,5,6,7-tetrahydro-indazol-1-yl]-acetic acid]"
14,43.2,"CS(=O)(=O)c1cccc(S(=O)(=O)NC2CCCc3c2cnn3CC(=O)O)c1 (stereo not drawn) [Example 1-14a, [4-(3-Methanesulfonyl-benzenesulfonylamino)-4,5,6,7-tetrahydro-indazol-1-yl]-acetic acid]"
15,262,"COc1ccc(S(=O)(=O)NC2CCCc3c2cnn3CC(=O)O)cc1C(F)(F)F (stereo not drawn) [Example 1-15a, [4-(4-Methoxy-3-trifluoromethyl-benzenesulfonylamino)-4,5,6,7-tetrahydro-indazol-1-yl]-acetic acid]"
16,5.9,"CS(=O)(=O)c1cc(S(C)(=O)=O)cc(S(=O)(=O)N[C@@H]2CCCc3c2cnn3CC(=O)O)c1 [Example 1-16a, [(R)-4-(3,5-Bis-methanesulfonyl-benzenesulfonylamino)-4,5,6,7-tetrahydro-indazol-1-yl]-acetic acid]"
17,381,"Cc1ccc(S(=O)(=O)NC2CCCc3c2cnn3CC(=O)O)cc1Cl (stereo not drawn) [Example 1-17a, [4-(3-Chloro-4-methyl-benzenesulfonylamino)-4,5,6,7-tetrahydro-indazol-1-yl]-acetic acid]"
18,264,"O=C(O)CCn1ncc2c1CCC[C@H]2NS(=O)(=O)c1cc(C(F)(F)F)cc(C(F)(F)F)c1 [Example 1-18a, 3-[(R)-4-(3,5-Bis-trifluoromethyl-benzenesulfonylamino)-4,5,6,7-tetrahydro-indazol-1-yl]-propionic acid]"
19,12.1,"CN([C@@H]1CCCc2c1cnn2CC(=O)O)S(=O)(=O)c1cc(C(F)(F)F)cc(C(F)(F)F)c1 [Example 2-1a, {(R)-4-[(3,5-Bis-trifluoromethyl-benzenesulfonyl)-methyl-amino]-4,5,6,7-tetrahydro-indazol-1-yl}-acetic acid]"
20,97.8,"CN([C@@H]1CCCc2c1cnn2CC(=O)O)S(=O)(=O)c1ccc(Br)cc1Cl [Example 2-2a, {(R)-4-[(4-Bromo-2-chloro-benzenesulfonyl)-methyl-amino]-4,5,6,7-tetrahydro-indazol-1-yl}-acetic acid]"
21,78.6,"CN([C@@H]1CCCc2c1cnn2CC(=O)O)S(=O)(=O)c1ccc(C(F)(F)F)cc1Cl [Example 2-3a, {(R)-4-[(2-Chloro-4-trifluoromethyl-benzenesulfonyl)-methyl-amino]-4,5,6,7-tetrahydro-indazol-1-yl}-acetic acid]"
22,253,"CN([C@@H]1CCCc2c1cnn2CC(=O)O)S(=O)(=O)c1ccc(Br)cc1F [Example 2-4a, {(R)-4-[(4-Bromo-2-fluoro-benzenesulfonyl)-methyl-amino]-4,5,6,7-tetrahydro-indazol-1-yl}-acetic acid]"
23,11.2,"CN([C@@H]1CCCc2c1cnn2CC(=O)O)S(=O)(=O)c1cc(Br)cc(C(F)(F)F)c1 [Example 2-5a, {(R)-4-[(3-Bromo-5-trifluoromethyl-benzenesulfonyl)-methyl-amino]-4,5,6,7-tetrahydro-indazol-1-yl}-acetic acid]"
24,50.2,"CN([C@@H]1CCCc2c1cnn2CC(=O)O)S(=O)(=O)c1cc(Br)cc(Br)c1 [Example 2-6a, {(R)-4-[(3,5-Dibromobenzenesulfonyl)-methyl-amino]-4,5,6,7-tetrahydro-indazol-1-yl}-acetic acid]"
25,166,"CN([C@@H]1CCCc2c1cnn2CC(=O)O)S(=O)(=O)c1cc(C(C)(C)C)cc(C(C)(C)C)c1 [Example 2-7a, {(R)-4-[(3,5-Di-tert-butyl-benzenesulfonyl)-methyl-amino]-4,5,6,7-tetrahydro-indazol-1-yl}-acetic acid]"
26,43.4,"CN([C@@H]1CCCc2c1cnn2CCC(=O)O)S(=O)(=O)c1cc(C(F)(F)F)cc(C(F)(F)F)c1 [Example 2-8a, 3-{(R)-4-[(3,5-Bis-trifluoromethyl-benzenesulfonyl)-methyl-amino]-4,5,6,7-tetrahydro-indazol-1-yl}-propionic acid]"
27,145,"CCOc1cc(C(F)(F)F)cc(S(=O)(=O)NC2CCCc3c2cnn3CC(=O)O)c1 (stereo not drawn) [Example 3-1a, [4-(3-Ethoxy-5-trifluoromethyl-benzenesulfonylamino)-4,5,6,7-tetrahydro-indazol-1-yl]-acetic acid]"
